Tests used:
[1] = tested on: smallflower umbrella sedge; assay: Test C flooded paddy test; type: in vivo, Cyperus difformis; settings: for Plant response rating, Sedge, Umbrella: 500 g ai/ha, visual rating after 12 to 14 days
rice = assay: Test C flooded paddy test; type: in vivo, Oryza sativa; settings: for Plant response rating, Rice: 500 g ai/ha, visual rating after 12 to 14 days
Procedure, shortened: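 Plants were grown to the 1- to 4-leaf stage (2–18 cm) and then treated postemergence, or grown to the 2-leaf stage for the flooded paddy test. They were held in a greenhouse for 12 to 14 days and then scored by eye against controls, where 0 is no effect and 100 is complete control.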

soybean = assay: Test C pre-/postemergence herbicide test; type: in vivo, Glycine max; settings: for Plant response rating, Soybean / Plant response rating (0 = no effect, 100 = complete control), Soybean: preemergence
Procedure, shortened: (§1)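 Greenhouse-grown plants were evaluated visually 12 to 14 days after treatment, with 100 meaning complete control and 0 no effect. Application was preemergence, or postemergence at 2 to 18 cm.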

Surinam grass = assay: Test C pre-/postemergence herbicide test; type: in vivo, Urochloa decumbens; settings: for Plant response rating, Surinam Grass / Plant response rating (0 = no effect, 100 = complete control), Surinam Grass: preemergence
Procedure, shortened: as §1

common ragweed = assay: Test C pre-/postemergence herbicide test; type: in vivo, Ambrosia elatior; design: key to Plant response rating, Ragweed: 0 = no effect, 100 = complete control; settings: for Plant response rating, Ragweed / Plant response rating (0 = no effect, 100 = complete control), Ragweed: preemergence
Procedure, shortened: as §1

giant foxtail = assay: Test C pre-/postemergence herbicide test; type: in vivo, Setaria faberi; settings: for Plant response rating, Foxtail, Giant / Plant response rating (0 = no effect, 100 = complete control), Foxtail, Giant: preemergence
Procedure, shortened: as §1

kochia = assay: Test C pre-/postemergence herbicide test; type: in vivo, Kochia scoparia; settings: for Plant response rating, Kochia / Plant response rating (0 = no effect, 100 = complete control), Kochia: preemergence
Procedure, shortened: as §1

corn = assay: Test C pre-/postemergence herbicide test; type: in vivo, Zea mays; settings: for Plant response rating, Corn / Plant response rating (0 = no effect, 100 = complete control), Corn: preemergence
Procedure, shortened: as §1

barnyardgrass = assay: Test C flooded paddy test; type: in vivo, Echinochloa crus-galli; settings: for Plant response rating, Barnyardgrass: 500 g ai/ha, visual rating after 12 to 14 days
Procedure, shortened: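 After a postemergence application at 1 to 4 leaves (plants 2–18 cm high), or at 2 leaves for barnyardgrass in flooded paddy, plants stayed in the greenhouse for 12 to 14 days. Damage was then judged visually relative to control plants, with 100 indicating complete control.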

morningglory = assay: Test C pre-/postemergence herbicide test; type: in vivo, Ipomoea coccinea; design: key to Plant response rating, Morningglory: 0 = no effect, 100 = complete control; settings: for Plant response rating, Morningglory / Plant response rating (0 = no effect, 100 = complete control), Morningglory: preemergence
Procedure, shortened: as §1

[2] = 62 g ai/ha, scale 0 to 100 (0 no effect, 100 complete control)
[3] = 125 g ai/ha, scale 0 to 100 (0 no effect, 100 complete control)
[4] = 250 g ai/ha, scale of 0 to 100, 0 is no effect, 100 is complete control
[5] = scale 0 to 100 (0 no effect, 100 complete control)
[6] = 125 g ai/ha, scale 0 (no effect) to 100 (complete control), visual, 12 to 14 days
[7] = Preemergence, 500 g ai/ha, scale 0 to 100, 0 no effect, 100 complete control
[8] = 500 g ai/ha, scale 0 to 100 (0 no effect, 100 complete control), visual, 12 to 14 days

For CCNC(=O)c1ccc(F)c(NC(=O)c2cn(C(C)(C)C)nc2CC)c1 [Compound 193], the “Sedge, Umbrella plant response rating” value [1, 2] was 75, the “Sedge, Umbrella plant response rating” value [1, 3] was 75 and the “Sedge, Umbrella plant response rating” value [1, 4] was 80. The “Plant response rating, Sedge, Umbrella” value [1, 5] was 85, the “Rice plant response rating” value (rice; [2]) was 25 and the “Rice plant response rating” value (rice; [3]) was 50. The “Rice plant response rating” value (rice; [4]) was 70, the “Plant response rating, Rice” value (rice; [5]) was 75 and the “Plant response rating, Soybean” value (soybean; 62 g ai/ha, scale 0 to 100) was 30. For the same compound, the “Plant response rating, Soybean” value (soybean; [6]) was 30, the “Plant response rating, Soybean” value (soybean; 250 g ai/ha, scale 0-100) was 50 and the “Soybean plant response rating” value (soybean; [7]) was 100. For the same compound, the “Plant response rating, Surinam Grass” value (Surinam grass; 62 g ai/ha, scale 0 to 100) was 50, the “Plant response rating, Surinam Grass” value (Surinam grass; [6]) was 80 and the “Plant response rating, Surinam Grass” value (Surinam grass; 250 g ai/ha, scale 0-100) was 95. For the same compound, the “Surinam Grass plant response rating” value (Surinam grass; [7]) was 100, the “Plant response rating, Ragweed” value (common ragweed; 62 g ai/ha, scale 0 to 100) was 0 and the “Plant response rating, Ragweed” value (common ragweed; [6]) was 100. For the same compound, the “Plant response rating, Ragweed” value (common ragweed; 250 g ai/ha, scale 0-100) was 100, the “Ragweed plant response rating” value (common ragweed; [7]) was 100 and the “Plant response rating, Foxtail, Giant” value (giant foxtail; 62 g ai/ha, scale 0 to 100) was 40. The “Plant response rating, Foxtail, Giant” value (giant foxtail; [6]) was 50, the “Plant response rating, Foxtail, Giant” value (giant foxtail; 250 g ai/ha, scale 0-100) was 80 and the “Foxtail, Giant plant response rating” value (giant foxtail; [7]) was 100. For the same compound, the “Plant response rating, Kochia” value (kochia; 62 g ai/ha, scale 0 to 100) was 85, the “Plant response rating, Kochia” value (kochia; [6]) was 85 and the “Plant response rating, Kochia” value (kochia; 250 g ai/ha, scale 0-100) was 100. For the same compound, the “Kochia plant response rating” value (kochia; [7]) was 100, the “Plant response rating, Corn” value (corn; 62 g ai/ha, scale 0 to 100) was 10 and the “Plant response rating, Corn” value (corn; [6]) was 60. The “Plant response rating, Corn” value (corn; 250 g ai/ha, scale 0-100) was 95, the “Corn plant response rating” value (corn; [7]) was 100 and the “Barnyardgrass plant response rating” value (barnyardgrass; [2]) was 30. The “Barnyardgrass plant response rating” value (barnyardgrass; [3]) was 55, the “Barnyardgrass plant response rating” value (barnyardgrass; [4]) was 85 and the “Plant response rating, Barnyardgrass” value (barnyardgrass; [5]) was 90. For the same compound, the “Plant response rating, Morningglory” value (morningglory; 62 g ai/ha, scale 0 to 100) was 20, the “Plant response rating, Morningglory” value (morningglory; [6]) was 20 and the “Plant response rating, Morningglory” value (morningglory; 250 g ai/ha, scale 0-100) was 100. For the same compound, the “Morningglory plant response rating” value (morningglory; [7]) was 100.
CCc1nn(C(C)C)nc1C(=O)Nc1cccc(C(=S)N(C)C)c1 [Compound 409] was tested, and the “Sedge, Umbrella plant response rating” value ([1]; 62 g ai/ha, scale 0 to 100) was 70, the “Sedge, Umbrella plant response rating” value [1, 3] was 75 and the “Sedge, Umbrella plant response rating” value [1, 4] was 85. For the same compound, the “Plant response rating, Sedge, Umbrella” value [1, 5] was 90, the “Rice plant response rating” value (rice; 62 g ai/ha, scale 0 to 100) was 20 and the “Rice plant response rating” value (rice; [3]) was 40. For the same compound, the “Rice plant response rating” value (rice; [4]) was 50, the “Plant response rating, Rice” value (rice; [5]) was 60 and the “Plant response rating, Soybean” value (soybean; 62 g ai/ha, scale 0 to 100) was 0. For the same compound, the “Plant response rating (0 = no effect, 100 = complete control), Soybean” value (soybean; 125 g ai/ha) was 80, the “Plant response rating, Soybean” value (soybean; [8]) was 100 and the “Plant response rating, Surinam Grass” value (Surinam grass; 62 g ai/ha, scale 0 to 100) was 50. For the same compound, the “Plant response rating (0 = no effect, 100 = complete control), Surinam Grass” value (Surinam grass; 125 g ai/ha) was 85, the “Plant response rating, Surinam Grass” value (Surinam grass; [8]) was 95 and the “Plant response rating, Ragweed” value (common ragweed; 62 g ai/ha, scale 0 to 100) was 45. For the same compound, the “Plant response rating (0 = no effect, 100 = complete control), Ragweed” value (common ragweed; 125 g ai/ha) was 85, the “Plant response rating, Ragweed” value (common ragweed; [8]) was 95 and the “Plant response rating, Foxtail, Giant” value (giant foxtail; 62 g ai/ha, scale 0 to 100) was 30. The “Plant response rating (0 = no effect, 100 = complete control), Foxtail, Giant” value (giant foxtail; 125 g ai/ha) was 85, the “Plant response rating, Foxtail, Giant” value (giant foxtail; 250 g ai/ha, scale 0-100) was 95 and the “Plant response rating, Foxtail, Giant” value (giant foxtail; [8]) was 95. For the same compound, the “Plant response rating (0 = no effect, 100 = complete control), Kochia” value (kochia; 125 g ai/ha) was 70, the “Plant response rating, Kochia” value (kochia; 250 g ai/ha, scale 0-100) was 85 and the “Plant response rating, Kochia” value (kochia; [8]) was 95. The “Plant response rating, Corn” value (corn; 62 g ai/ha, scale 0 to 100) was 0, the “Plant response rating (0 = no effect, 100 = complete control), Corn” value (corn; 125 g ai/ha) was 5 and the “Plant response rating, Corn” value (corn; 250 g ai/ha, scale 0-100) was 75. For the same compound, the “Plant response rating, Corn” value (corn; [8]) was 80, the “Barnyardgrass plant response rating” value (barnyardgrass; [2]) was 20 and the “Barnyardgrass plant response rating” value (barnyardgrass; [3]) was 20. The “Barnyardgrass plant response rating” value (barnyardgrass; [4]) was 40, the “Plant response rating, Barnyardgrass” value (barnyardgrass; [5]) was 60 and the “Plant response rating, Morningglory” value (morningglory; 62 g ai/ha, scale 0 to 100) was 10. The “Plant response rating (0 = no effect, 100 = complete control), Morningglory” value (morningglory; 125 g ai/ha) was 40 and the “Plant response rating, Morningglory” value (morningglory; [8]) was 100.
For C=CCNC(=O)c1cccc(NC(=O)c2nn(C(C)C)nc2CC)c1 [Compound 382], the “Sedge, Umbrella plant response rating” value ([1]; 62 g ai/ha, scale 0 to 100) was 75, the “Sedge, Umbrella plant response rating” value [1, 3] was 80 and the “Sedge, Umbrella plant response rating” value [1, 4] was 85. For the same compound, the “Plant response rating, Sedge, Umbrella” value [1, 5] was 90, the “Rice plant response rating” value (rice; 62 g ai/ha, scale 0 to 100) was 20 and the “Rice plant response rating” value (rice; [3]) was 55. For the same compound, the “Rice plant response rating” value (rice; [4]) was 70, the “Plant response rating, Rice” value (rice; [5]) was 75 and the “Plant response rating, Soybean” value (soybean; 62 g ai/ha, scale 0 to 100) was 100. For the same compound, the “Plant response rating (0 = no effect, 100 = complete control), Soybean” value (soybean; 125 g ai/ha) was 100, the “Plant response rating, Soybean” value (soybean; 250 g ai/ha, scale 0-100) was 100 and the “Plant response rating, Soybean” value (soybean; [8]) was 100. The “Plant response rating (0 = no effect, 100 = complete control), Surinam Grass” value (Surinam grass; 125 g ai/ha) was 95, the “Plant response rating, Surinam Grass” value (Surinam grass; 250 g ai/ha, scale 0-100) was 100 and the “Plant response rating, Surinam Grass” value (Surinam grass; [8]) was 100. For the same compound, the “Plant response rating, Ragweed” value (common ragweed; 62 g ai/ha, scale 0 to 100) was 20, the “Plant response rating (0 = no effect, 100 = complete control), Ragweed” value (common ragweed; 125 g ai/ha) was 65 and the “Plant response rating, Ragweed” value (common ragweed; 250 g ai/ha, scale 0-100) was 90. The “Plant response rating, Ragweed” value (common ragweed; [8]) was 100, the “Plant response rating, Foxtail, Giant” value (giant foxtail; 62 g ai/ha, scale 0 to 100) was 60 and the “Plant response rating (0 = no effect, 100 = complete control), Foxtail, Giant” value (giant foxtail; 125 g ai/ha) was 90. The “Plant response rating, Foxtail, Giant” value (giant foxtail; 250 g ai/ha, scale 0-100) was 100, the “Plant response rating, Foxtail, Giant” value (giant foxtail; [8]) was 100 and the “Plant response rating, Kochia” value (kochia; 62 g ai/ha, scale 0 to 100) was 0. The “Plant response rating (0 = no effect, 100 = complete control), Kochia” value (kochia; 125 g ai/ha) was 20, the “Plant response rating, Kochia” value (kochia; 250 g ai/ha, scale 0-100) was 95 and the “Plant response rating, Kochia” value (kochia; [8]) was 100. For the same compound, the “Plant response rating, Corn” value (corn; 62 g ai/ha, scale 0 to 100) was 0, the “Plant response rating (0 = no effect, 100 = complete control), Corn” value (corn; 125 g ai/ha) was 50 and the “Plant response rating, Corn” value (corn; 250 g ai/ha, scale 0-100) was 55. The “Plant response rating, Corn” value (corn; [8]) was 60, the “Barnyardgrass plant response rating” value (barnyardgrass; [2]) was 10 and the “Barnyardgrass plant response rating” value (barnyardgrass; [3]) was 25. For the same compound, the “Barnyardgrass plant response rating” value (barnyardgrass; [4]) was 65, the “Plant response rating, Barnyardgrass” value (barnyardgrass; [5]) was 75 and the “Plant response rating, Morningglory” value (morningglory; 62 g ai/ha, scale 0 to 100) was 0. For the same compound, the “Plant response rating (0 = no effect, 100 = complete control), Morningglory” value (morningglory; 125 g ai/ha) was 25, the “Plant response rating, Morningglory” value (morningglory; 250 g ai/ha, scale 0-100) was 65 and the “Plant response rating, Morningglory” value (morningglory; [8]) was 100.

Reference: patent US20060069132A1, “Azolecarboxamide herbicides” (priority 2004, published 2006)
